From patent publication US7879795B2, “Enhancement of tigecycline potency using efflux pump inhibitors” (Mpex Pharmaceuticals, Inc., priority 2004, dated 2011)

Key:
[1] = Tissue levels in rat six-hour after 8.4 mg/kg IV bolus; format: in vivo; details: rat kidney, liver and lung; 8.4 mg/kg IV bolus; in words
Protocol: Tissue levels of compounds 1, 2, 3 and 4 were evaluated in kidney, liver and lung six-hour after 8.4 mg/kg IV bolus administration. FIG. 13 depicts the levels as a function of time.
Compound 67, which is the expected metabolite of proteolytic intracellular degradation of compound 3, was detected in rat tissues after IV infusion, confirming the tissue-specific degradation of compound 3 (Tables 9A, B).

[2] = In vitro stability in rat serum and tissue homogenates (LC/MS/MS); format: in vitro ADME; details: for stability in tissue homogenates at pH lowered to about 6 versus no pH change: rat kidney, liver, lung homogenates, acetic acid
[3] = tested on: P. aeruginosa, PAM1723, overexpressing the MexAB-OprM efflux pump; assay: Levofloxacin potentiation checkerboard assay (broth microdilution); format: cell-based; details: for MPC8: EPI concentration necessary to increase susceptibility to levofloxacin eight-fold
In short: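 Checkerboard of levofloxacin against efflux pump inhibitors (EPIs) in Mueller-Hinton broth (MHB), with the EPIs titrated down the rows. Plates were incubated 20 h at 35 °C; growth was read at 650 nm and also scored visually.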

[4] = tested on: PAM 1032, nalB, MexAB-OprM over-expressed; assay: microbe, parasite or virus in culture; format: cell-based, P. aeruginosa; design: Tigecycline MIC in the presence of Compound 21: unit not given here; details: PAM 1032
Protocol: The ability of compound 21 to increase susceptibility to tigecycline was also assessed. The tigecycline potentiating activity of compound 21 was assessed by the checkerboard assay (Antimicrobial Combinations, Antibiotics in Laboratory Medicine, ed. Victor Lorian, M.D., Fourth edition, 1996, pp 333-338, which is incorporated herein by reference in its entirety) using a broth micro-dilution method performed as recommended by the CSLI (Clinical and Laboratory Standards Institute, formerly NCCLS) guidelines (National Committee for Clinical Laboratory Standards 2003. Methods for Dilution Antimicrobial Susceptibility Tests for Bacteria That Grow Aerobically—Sixth Edition; Approved Standard. NCCLS Document M7-A6, Vol 20 No. 2). In this assay, multiple dilutions of the two drugs, compound 21 and tigecycline, were tested alone and in combination, at concentrations equal to, above and below their respective minimal inhibitory concentrations (MICs). […] The stock solution was further diluted in Mueller Hinton Broth (MHB). Stock solutions were stored at −80° C.
The checkerboard assay was performed in microtiter plates. Tigecycline was diluted in the x axis, each column containing a single concentration of tigecycline. Compound 21 was diluted in the y axis, each row containing an equal concentration of the EPI. […] The assay was performed in MHB with a final bacterial inoculum of 5×10^5 CFU/ml (from an early-log phase culture). The microtiter plates were incubated for 20 hours at 35° C. and then read using a microtiter plate reader (Molecular Devices) at 650 nm, as well as by visual observation using a microtiter plate-reading mirror.
P. aeruginosa strain PAM 1032 was grown in Mueller-Hinton Broth (MHB) at 35° C. under constant aeration. After 20 hours, the inoculum was sub-cultured into fresh MHB and allowed to regrow at 35° C., under constant aeration, for 4 hours. The inoculum was adjusted to ca. 4×10^7 CFU/ml by correlation of absorbance at 600 nm with predetermined plate counts. The inoculum was then diluted 2-fold in 14% hog-gastric mucin (Sigma, St. Louis, Mo.) for a final inoculum concentration of 2×10^7 CFU/ml. […] At 0 and 2 hours following infection, tigecycline was administered by the subcutaneous route and compound 21 was administered by the intraperitoneal route.

[5] = EPI 0 μg/ml (levofloxacin alone)

Compound	tissue levels at 6 hours after IV injection [1]	stability in supernatant of rat kidney tissue homogenates ([2]; in words)	stability in tissue homogenates at pH lowered to about 6 versus no pH change [2]	Antibiotic (levofloxacin) MIC in the presence of EPI [3, 5] [µg/mL]	Antibiotic (levofloxacin) MIC in the presence of EPI ([3]; EPI 1.25 μg/ml) [µg/mL]	Antibiotic (levofloxacin) MIC in the presence of EPI ([3]; EPI 5 μg/ml) [µg/mL]	Antibiotic (levofloxacin) MIC in the presence of EPI ([3]; EPI 10 μg/ml) [µg/mL]	Antibiotic (levofloxacin) MIC in the presence of EPI ([3]; EPI 20 μg/ml) [µg/mL]	Antibiotic (levofloxacin) MIC in the presence of EPI ([3]; EPI 40 μg/ml) [µg/mL]	Antibiotic (levofloxacin) MIC in the presence of EPI ([3]; EPI 80 μg/ml) [µg/mL]	Antibiotic (levofloxacin) MIC in the presence of EPI ([3]; EPI […]) [µg/mL]	MPC8 [3] [µg/mL]	also measured
NCCC[C@@H](N)C(=O)N[C@H](CCc1ccccc1)C(=O)Nc1cnc2ccccc2c1 [Compound 1, 2-(R),5-Diamino-pentanoic acid [3-phenyl-1-(R)-(quinolin-3-ylcarbamoyl)-propyl]-amide]	relatively high levels	neither compound 1 nor compound 4 show any instability	essentially unchanged	2	2	0.5	0.06	0.03	0.015	0.008	1	10	compound left after 16 hrs of incubation ([2]; all of the tissues tested (rat serum, tissue homogenates), 37° C., 2 μg/ml): 70-80%; stability in all of the tissues tested ([2]; rat, in words): highly stable
NCCC[C@H](N)C(=O)N[C@H](CCc1ccccc1)C(=O)Nc1cnc2ccccc2c1 [Compound 3, 2-(S),5-Diamino-pentanoic acid [3-phenyl-1-(R)-(quinolin-3-ylcarbamoyl)-propyl]-amide]	very low level	supernatant instability was selective to compound 3	degraded faster	2	2	0.25	0.03	0.015	0.015	0.015	1	10	stability in supernatant versus pellet of kidney tissue homogenates ([2]; after 5 min. centrifugation): Greater instability; stability in rat serum ([2]; in words): at least as stable as 1; stability in kidney and liver ([2]; rat tissue homogenates, in words): more unstable than 1
NCCC[C@H](N)C(=O)N[C@H](Cc1ccc(C(F)(F)F)cc1)C(=O)Nc1cnc2ccccc2c1 [Compound 21, 2-(S),5-Diamino-pentanoic acid [1-(R)-(quinolin-3-ylcarbamoyl)-2-(4-trifluoromethyl-phenyl)-ethyl]amide]													Tigecycline MIC in the presence of Compound 21 ([4]; Compound 21 0.625 μg/ml): 4; Tigecycline MIC in the presence of Compound 21 ([4]; Compound 21 1.25 μg/ml): 2; Tigecycline MIC in the presence of Compound 21 ([4]; Compound 21 5 μg/ml): 0.5; Tigecycline MIC in the presence of Compound 21 ([4]; Compound 21 10 μg/ml): 0.5; Tigecycline MIC in the presence of Compound 21 ([4]; Compound 21 20 μg/ml): 0.5; Tigecycline MIC in the presence of Compound 21 ([4]; Compound 21 40 μg/ml): 0.5; Tigecycline MIC in the presence of Compound 21 ([4]; Compound 21 […]): 0.5
